Molecules are shown by their SMILES. Starred links: 1 amine or outer side, 2 acyl side, 3 side chain; linkers in the order of their positions; H or OH if unused. Non-standard residues stand in square brackets, D forms with d. Residues, ends and D or L forms follow the SMILES beside them. *: point of attachment. JQ1acid = Cc1sc2c(c1C)C(c1ccc(Cl)cc1)=N[C@@H](CC(=O)*)c1nnc(C)n1-2; X1 = CC(C)(C)[C@@H](C(=O)[*:2])n1cc(COCCN[*:1])nn1; X13 = Cc1ncsc1-c1ccc(C[C@@H](N[*:1])C(=O)[*:2])cc1; dBip = N[C@H](Cc1ccc(-c2ccccc2)cc1)C(=O)O; dLys(N3) = [N-]=[N+]=NCCCC[C@@H](N)C(=O)O; Hyp = O=C(O)[C@@H]1C[C@@H](O)CN1; Tle = CC(C)(C)[C@H](N)C(=O)O; dDap = NC[C@@H](N)C(=O)O; AEA = NCCOCC(=O)O

The test has as its target T1, BRD4 (Homo sapiens, UniProt O60885).
T1 construct: Mean 488 intensity of BRD4 quantitated in nuclear region; endogenous in cells; host or cells: EoL-1 eosinophilic leukemia cells
Kind of test: BRD4 degradation assay in EOL1 cells (immunofluorescence imaging). The format is cell-based. Particulars: EoL-1 eosinophilic leukemia cells, 4 hours treatment, nuclear BRD4 immunofluorescence. The procedure, abridged: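 EoL-1 cells treated 4 h at 37 °C with 20-point 1/3 serial dilutions (0.2% DMSO) in RPMI/10% FBS, then fixed and immunostained for BRD4. Mean nuclear BRD4 intensity measured by high-content imaging, with Hoechst nuclear masking. DMSO and no-primary-antibody controls define 0 and 100%; DC50 and maximal effect from dose-response fit.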
Turning to `Cc1sc2c(c1C)C(c1ccc(Cl)cc1)=N[C@@H](CC(=O)NC[C@H]1NC(=O)[C@@H](CCC(N)=O)NC(=O)[C@@H](Cc3ccc(-c4ccccc4)cc3)NC(=O)[C@@H]3C[C@@H](O)CN3C(=O)[C@H](C(C)(C)C)NC(=O)COCCNC1=O)c1nnc(C)n1-2` [Compound 66] (cyclo([AEA][Tle][Hyp][dBip][dQ][dDap](JQ1acid))), the DC50 is below 1000 nM.

`Cc1sc2c(c1C)C(c1ccc(Cl)cc1)=N[C@@H](CC(=O)NC[C@H]1CCCNC(=O)[C@@H](Cc3ccc(-c4ccccc4)cc3)NC(=O)[C@@H]3C[C@@H](O)CN3C(=O)[C@H](C(C)(C)C)NC(=O)COCCNC1=O)c1nnc(C)n1-2` [Compound 67] yielded a DC50 below 50 nM.

With `Cc1ncsc1-c1ccc([C@H]2NC(=O)[C@@H]3C[C@@H](O)CN3C(=O)[C@H](C(C)(C)C)NC(=O)CSC[C@H](C(N)=O)NC(=O)[C@@H](NC(=O)C[C@@H]3N=C(c4ccc(Cl)cc4)c4c(sc(C)c4C)-n4c(C)nnc43)NC(=O)CNC2=O)cc1` [Compound 68], the half-maximal degradation concentration (DC50) is above 20000 nM.

`Cc1ncsc1-c1ccc([C@H]2NC(=O)[C@@H]3C[C@@H](O)CN3C(=O)[C@H](C(C)(C)C)NC(=O)CSC[C@H](C(N)=O)NC(=O)[C@H](NC(=O)C[C@@H]3N=C(c4ccc(Cl)cc4)c4c(sc(C)c4C)-n4c(C)nnc43)NC(=O)CNC2=O)cc1` [Compound 69] yielded a DC50 above 20000 nM.

In turn, `Cc1ncsc1-c1ccc(C[C@H]2NC(=O)[C@@H]3C[C@@H](O)CN3C(=O)[C@H](C(C)(C)C)NC(=O)COCCNC(=O)[C@@H](CNC(=O)C[C@@H]3N=C(c4ccc(Cl)cc4)c4c(sc(C)c4C)-n4c(C)nnc43)NC(=O)[C@@H](C)NC2=O)cc1` [Compound 70] (cyclo([AEA][Tle][Hyp][X13][dA][dDap](JQ1acid))) displayed a DC50 below 50 nM.

Regarding `Cc1sc2c(c1C)C(c1ccc(Cl)cc1)=N[C@@H](CC(=O)NC[C@H]1NC(=O)[C@@H](CCCCN=[N+]=[N-])NC(=O)[C@@H](Cc3ccc(-c4ccccc4)cc3)NC(=O)[C@@H]3C[C@@H](O)CN3C(=O)[C@H](C(C)(C)C)NC(=O)COCCNC1=O)c1nnc(C)n1-2` [Compound 71] (cyclo([AEA][Tle][Hyp][dBip][dLys(N3)][dDap](JQ1acid))), the half-maximal degradation concentration (DC50) is below 1000 nM.

As to `Cc1sc2c(c1C)C(c1ccc(Cl)cc1)=N[C@@H](CC(=O)NC[C@H]1NC(=O)[C@@H](CCCCN)NC(=O)[C@@H](Cc3ccc(-c4ccccc4)cc3)NC(=O)[C@@H]3C[C@@H](O)CN3C(=O)[C@H](C(C)(C)C)NC(=O)COCCNC1=O)c1nnc(C)n1-2` [Compound 72] (cyclo([AEA][Tle][Hyp][dBip][dK][dDap](JQ1acid))), the DC50 was below 1000 nM.

`Cc1sc2c(c1C)C(c1ccc(Cl)cc1)=N[C@@H](CC(=O)NC[C@H]1NC(=O)CNC(=O)[C@@H](Cc3ccc(-c4ccccc4)cc3)NC(=O)[C@@H]3C[C@@H](O)CN3C(=O)[C@H](C(C)(C)C)n3cc(nn3)COCCNC1=O)c1nnc(C)n1-2` [Compound 200] showed a half-maximal degradation concentration (DC50) below 50 nM.

Compound `Cc1sc2c(c1C)C(c1ccc(Cl)cc1)=N[C@@H](CC(=O)NC[C@H]1NC(=O)[C@@H](C)NC(=O)[C@@H](Cc3ccc(-c4ccccc4)cc3)NC(=O)[C@@H]3C[C@@H](O)CN3C(=O)[C@H](C(C)(C)C)n3cc(nn3)COCCNC1=O)c1nnc(C)n1-2` [Compound 201] returned a half-maximal degradation concentration (DC50) below 50 nM.

`Cc1sc2c(c1C)C(c1ccc(Cl)cc1)=N[C@@H](CC(=O)NC[C@H]1NC(=O)[C@@H](C(C)C)NC(=O)[C@@H](Cc3ccc(-c4ccccc4)cc3)NC(=O)[C@@H]3C[C@@H](O)CN3C(=O)[C@H](C(C)(C)C)n3cc(nn3)COCCNC1=O)c1nnc(C)n1-2` [Compound 202] (cyclo([Hyp][dBip][dV][dDap](JQ1acid)[X1])) showed a DC50 below 50 nM.

Regarding `Cc1sc2c(c1C)C(c1ccc(Cl)cc1)=N[C@@H](CC(=O)N(C)C[C@H]1NC(=O)CNC(=O)[C@@H](Cc3ccc(-c4ccccc4)cc3)NC(=O)[C@@H]3C[C@@H](O)CN3C(=O)[C@H](C(C)(C)C)n3cc(nn3)COCCNC1=O)c1nnc(C)n1-2` [Compound 203], the half-maximal degradation concentration (DC50) is below 1000 nM.

The values above are taken from patent US12187816B2, “Macrocyclic compounds and methods of use thereof” (Genentech, Inc., priority 2020, dated 2025).
